From patent US4176009A, “Method of measuring collagenase activity” (Ajinomoto Co., Inc., priority 1976, dated 1979)
Non-standard residues stand in square brackets, D forms with d. Residues, ends and D or L forms follow the SMILES beside them. *: point of attachment. Dnp = O=[N+]([O-])c1ccc(*)c([N+](=O)[O-])c1

Legend:
purified collagenase [1] = assay: Rate of hydrolysis of DNP-peptide derivatives by purified collagenase (Example 15); assay type: biochemical, tadpole; conditions: 5×10^-4 M peptide, purified collagenase 6.2 U/ml, 37° C., pH 7.5; average of three experiments; extraction with ethyl acetate (* compounds: ethyl acetate-n-butanol 1:0.15)
Experimental: (§1) Purified collagenase used in Examples was prepared from cultured media of tadpole skin explants as described in Biochem. Biophs. Acta, 263 564(1972), and non-specific peptidases were prepared by subjecting 5 ml of fresh adult human serum to chromatography on a calibrated Sephadex G-200 superfine gel column equilibrated with 0.05 M Tris-HCl buffer, pH 7.5, containing 0.15 M NaCl and 5 mM CaCl2, and gathering the effluent fractions corresponding to molecular weights of 100,000-180,000.
(§2) Various DNP-peptide derivatives were dissolved in 0.05 M Tris-HCl buffer, pH 7.5, containing 0.15 M NaCl, 5 mM CaCl2 and 0.02% bovine serum albumin to make a concentration of 5×10^-4 M. 0.1 ml Each of the peptide derivative solutions was mixed with an equal volume of purified collagenase (6.2 U/ml) or non-specific peptidases and incubated for various periods at 37° C. After stopping the enzyme reaction by adding 0.5 ml of 1 M HCl, the DNP-peptide fragments released were extracted by vigorous shaking with 1 ml of ethylacetate or ethyl acetate-n-butanol (1:0.15, V/V), and worked up as in Example 12.

non-specific peptidases [2] = assay: Rate of hydrolysis of DNP-peptide derivatives by non-specific peptidases (Example 15); assay type: biochemical, human; conditions: 5×10^-4 M peptide, 37° C., pH 7.5; average of three experiments; extraction with ethyl acetate (* compounds: ethyl acetate-n-butanol 1:0.15)
Experimental: as §1, §2

non-specific peptidases [3] = assay: Time course of hydrolysis of substrate solution(a) by non-specific peptidase (Example 13); assay type: biochemical, human
Experimental: as §1
(§3) 0.9 ml Each of the substrate solutions was diluted with 0.88 ml of 0.05M tris-HCl buffer, pH 7.5, containing 0.15 M NaCl, and 5 m MCaCl2. The resulting solution was mixed with 0.02 ml of purified collagenase, and incubated. 0.2 ml Aliquots of the reaction mixture were taken out at 0, 10, 20, 40, 60 and 120 minutes, and mixed with 0.5 ml of 1M hydrochloric acid for stopping the enzyme reaction.
(§4) The DNP-peptide fragments released were extracted by vigorous shaking with 1 ml of ethyl acetate-n-butanol (1:0.15, V/V) followed by centrifugation at 3,000-5,000 rpm and room temperature for 10 minutes to separate two layers completely. The degree of hydrolysis was determined by measuring the absorbance of the organic layer at 365 nm.
1 ml of the substrate solution(a) prepared in Example 12 was mixed with 1.0 ml of non-specific peptidase, and the resulting solution was worked up as in Example 12.

[4] = test system: collagenase in synovial fluids; assay: Hydrolysis of substrate solutions by synovial fluids from patients; collagenase activity (Example 14); assay type: biochemical, human; conditions: for OD365/0.1 ml ohr: 0 hr; for OD365/0.1 ml 2hr: 2 hr at 37° C.; for OD365/0.1 ml increment: 2 hr minus 0 hr
Experimental: as §4
0.2 ml Each of the substrate (solutions(a) and (b) prepared in Example 12 was mixed with 0.1 ml of synovial fluids from patients with osteoarthritis and rheumatoid arthritis, and incubated for 2 hours at 37° C. After stopping the enzyme reaction by adding 0.5 ml of 1 M hydrochloric acid, the DNP-peptide fragments released were extracted by vigorous shaking with 2 ml of ethyl acetate-n-butanol (1:0.15, V/V), and worked up as in Example 12 to obtain the collagenase activities.

purified collagenase [5] = assay: Time course of hydrolysis of substrate solutions by purified collagenase (Example 12); assay type: biochemical, tadpole; conditions: for 00365 (absorbance of the organic layer at 365 nm): pH 7.5
Experimental: as §1
DNP-Pro-Gln-Gly-Ile-Ala-Gly-Gln-D-Arg-OH.CH3 COOH.H2 O (4.96 mg) was neutralized with 0.1N sodium hydroxide, and dissolved in 0.05M tris-HCl buffer, pH 7.5, containing 0.15 M NaCl and 5 m MCaCl2 to make 10 ml of the substrate solution (a) having a concentration of 5×10^-4 M. The substrate solution (b) was also prepared similarly by using DNP-Gln-Gly-Ile-Ala-Gly-Gln-D-Arg-OH.CH3 COOH.H2 O (4.48 mg).
as §3, §4

[6] = synovial fluid of case five, RA
[7] = synovial fluid of case four, OA
[8] = synovial fluid of case three, RA

Q: What does the source list for `CC[C@H](C)[C@H](NC(=O)CNC(=O)[C@H](CCC(N)=O)NC(=O)[C@@H]1CCCN1c1ccc([N+](=O)[O-])cc1[N+](=O)[O-])C(=O)N[C@@H](C)C(=O)NCC(=O)N[C@@H](CCC(N)=O)C(=O)N[C@H](CCCNC(=N)N)C(=O)O` [Example 1, DNP-Pro-Gln-Gly-Ile-Ala-Gly-Gln-D-Arg-OH] (Dnp-PQGIAGQ[dR]-OH)?
A: Rate of hydrolysis by Collagenase (purified collagenase [1]): 0.093 OD365/hr; Rate of hydrolysis by non-specific peptidases (non-specific peptidases [2]): 0 OD365/hr; 00365 (absorbance of the organic layer at 365 nm) (non-specific peptidases [3]; incubation time 0 min): 0.053; 00365 (absorbance of the organic layer at 365 nm) (non-specific peptidases [3]; incubation time 10 min): 0.054; increment of 00365 (non-specific peptidases [3]; incubation time 10 min): 0.001; 00365 (absorbance of the organic layer at 365 nm) (non-specific peptidases [3]; incubation time 20 min): 0.056; increment of 00365 (non-specific peptidases [3]; incubation time 20 min): 0.002; 00365 (absorbance of the organic layer at 365 nm) (non-specific peptidases [3]; incubation time 40 min): 0.058; increment of 00365 (non-specific peptidases [3]; incubation time 40 min): 0.004; 00365 (absorbance of the organic layer at 365 nm) (non-specific peptidases [3]; incubation time 60 min): 0.060; increment of 00365 (non-specific peptidases [3]; incubation time 60 min): 0.007; 00365 (absorbance of the organic layer at 365 nm) (non-specific peptidases [3]; incubation time 120 min): 0.063; increment of 00365 (non-specific peptidases [3]; incubation time 120 min): 0.010; OD365/0.1 ml ohr [4, 6]: 0.045 OD365/0.1 ml; OD365/0.1 ml 2hr [4, 6]: 0.591 OD365/0.1 ml; OD365/0.1 ml increment [4, 6]: 0.546 OD365/0.1 ml; OD365/0.1 ml ohr [4, 7]: 0.042 OD365/0.1 ml; OD365/0.1 ml 2hr [4, 7]: 0.045 OD365/0.1 ml; OD365/0.1 ml increment [4, 7]: 0.003 OD365/0.1 ml; OD365/0.1 ml ohr ([4]; synovial fluid of case one, RA): 0.041 OD365/0.1 ml; OD365/0.1 ml 2hr ([4]; synovial fluid of case one, RA): 0.058 OD365/0.1 ml; OD365/0.1 ml increment ([4]; synovial fluid of case one, RA): 0.017 OD365/0.1 ml; OD365/0.1 ml ohr ([4]; synovial fluid of case six, OA): 0.045 OD365/0.1 ml; OD365/0.1 ml 2hr ([4]; synovial fluid of case six, OA): 0.041 OD365/0.1 ml; OD365/0.1 ml increment ([4]; synovial fluid of case six, OA): 0 OD365/0.1 ml; OD365/0.1 ml ohr [4, 8]: 0.049 OD365/0.1 ml; OD365/0.1 ml 2hr [4, 8]: 0.695 OD365/0.1 ml; OD365/0.1 ml increment [4, 8]: 0.646 OD365/0.1 ml; OD365/0.1 ml ohr ([4]; synovial fluid of case two, OA): 0.045 OD365/0.1 ml; OD365/0.1 ml 2hr ([4]; synovial fluid of case two, OA): 0.043 OD365/0.1 ml; 00365 (absorbance of the organic layer at 365 nm) (purified collagenase [5]; incubation time 0 min): 0.033; increment of 00365 (purified collagenase [5]; incubation time 10 min): 0.018; 00365 (absorbance of the organic layer at 365 nm) (purified collagenase [5]; incubation time 10 min): 0.051; increment of 00365 (purified collagenase [5]; incubation time 20 min): 0.018; 00365 (absorbance of the organic layer at 365 nm) (purified collagenase [5]; incubation time 20 min): 0.071; increment of 00365 (purified collagenase [5]; incubation time 40 min): 0.079; 00365 (absorbance of the organic layer at 365 nm) (purified collagenase [5]; incubation time 40 min): 0.112; increment of 00365 (purified collagenase [5]; incubation time 60 min): 0.107; 00365 (absorbance of the organic layer at 365 nm) (purified collagenase [5]; incubation time 60 min): 0.140; increment of 00365 (purified collagenase [5]; incubation time 120 min): 0.184; 00365 (absorbance of the organic layer at 365 nm) (purified collagenase [5]; incubation time 120 min): 0.217

Q: With `CC(C)C[C@H](NC(=O)CNC(=O)[C@H](CCC(N)=O)NC(=O)[C@@H]1CCCN1c1ccc([N+](=O)[O-])cc1[N+](=O)[O-])C(=O)N[C@@H](C)C(=O)NCC(=O)N[C@@H](CCC(N)=O)C(=O)N[C@H](CCCNC(=N)N)C(=O)O` [Example 4, DNP-Pro-Gln-Gly-Leu-Ala-Gly-Gln-D-Arg-OH] (Dnp-PQGLAGQ[dR]-OH) as the molecule, how does the “Rate of hydrolysis by Collagenase” value (purified collagenase [1]) read?
A: Its value is 0.243 OD365/hr.

Q: What about the “Rate of hydrolysis by non-specific peptidases” value (non-specific peptidases [2]) of the same molecule?
A: The value was 0.031 OD365/hr.

Q: Which “Rate of hydrolysis by Collagenase” value (purified collagenase [1]) does the source give for `CC[C@H](C)[C@H](NC(=O)CNC(=O)[C@H](C)NC(=O)[C@@H]1CCCN1c1ccc([N+](=O)[O-])cc1[N+](=O)[O-])C(=O)N[C@@H](C)C(=O)NCC(=O)N[C@@H](CCC(N)=O)C(=O)N[C@H](CCCNC(=N)N)C(=O)O` [Example 5, DNP-Pro-Ala-Gly-Ile-Ala-Gly-Gln-D-Arg-OH] (Dnp-PAGIAGQ[dR]-OH) here?
A: The value was 0.070 OD365/hr.

Q: What about the “Rate of hydrolysis by non-specific peptidases” value (non-specific peptidases [2]) of the same molecule?
A: Its value is 0.010 OD365/hr.

Q: Which “Rate of hydrolysis by Collagenase” value (purified collagenase [1]) does the source give for `CC(C)C[C@H](NC(=O)CNC(=O)[C@H](C)NC(=O)[C@@H]1CCCN1c1ccc([N+](=O)[O-])cc1[N+](=O)[O-])C(=O)N[C@@H](C)C(=O)NCC(=O)N[C@@H](CCC(N)=O)C(=O)N[C@H](CCCNC(=N)N)C(=O)O` [Example 6, DNP-Pro-Ala-Gly-Leu-Ala-Gly-Gln-D-Arg-OH] (Dnp-PAGLAGQ[dR]-OH) here?
A: The value was 0.120 OD365/hr.

Q: And the “Rate of hydrolysis by non-specific peptidases” value (non-specific peptidases [2])?
A: Its value is 0.051 OD365/hr.
